Results as given in article PMC4394749 (Journal of medicinal chemistry, 2015).

How the values were obtained:
PC-3 cells [1] = assay: Immunofluorescence staining of microtubules in PC-3 cells; type: cell-based, human; conditions: PC-3, 24 h; for microtubule morphology: equitoxic concentrations: 0.2 µM 4, 0.2 µM CA-4, 5 µM VIN, 0.2 µM PXL; for dose-dependent effects on microtubule morphology: compounds 0.2, 2 or 20 µM, CA-4 0.002 or 20 µM
A549 (lung carcinoma) = assay: SRB antiproliferative assay, A549; type: cell-based, human; conditions: for IC50: read-out: IC50 A549, 72 h; for IC50 A549: 72 h
[2] = tested on: tumor cell lines overexpressing P-gp; conditions: cited from earlier work
bovine brain tubulin [3] = biological target: T1, bovine brain tubulin (Bos taurus, UniProt P81947+Q6B856); assay: Inhibition of purified tubulin assembly; type: biochemical
T1 sequence (P81947 whole entry): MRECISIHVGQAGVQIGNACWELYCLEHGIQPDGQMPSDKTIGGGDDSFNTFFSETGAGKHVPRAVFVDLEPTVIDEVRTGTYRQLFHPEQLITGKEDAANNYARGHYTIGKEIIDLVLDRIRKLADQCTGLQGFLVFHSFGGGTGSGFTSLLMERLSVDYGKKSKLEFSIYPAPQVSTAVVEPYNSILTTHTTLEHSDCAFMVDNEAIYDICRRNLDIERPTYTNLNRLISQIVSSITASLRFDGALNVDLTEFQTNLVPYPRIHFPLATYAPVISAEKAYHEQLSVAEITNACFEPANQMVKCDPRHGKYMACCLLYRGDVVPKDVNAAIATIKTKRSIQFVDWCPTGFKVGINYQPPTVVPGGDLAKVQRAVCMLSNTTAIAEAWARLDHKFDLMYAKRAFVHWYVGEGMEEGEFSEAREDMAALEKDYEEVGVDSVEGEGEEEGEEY
T1 sequence (Q6B856 whole entry): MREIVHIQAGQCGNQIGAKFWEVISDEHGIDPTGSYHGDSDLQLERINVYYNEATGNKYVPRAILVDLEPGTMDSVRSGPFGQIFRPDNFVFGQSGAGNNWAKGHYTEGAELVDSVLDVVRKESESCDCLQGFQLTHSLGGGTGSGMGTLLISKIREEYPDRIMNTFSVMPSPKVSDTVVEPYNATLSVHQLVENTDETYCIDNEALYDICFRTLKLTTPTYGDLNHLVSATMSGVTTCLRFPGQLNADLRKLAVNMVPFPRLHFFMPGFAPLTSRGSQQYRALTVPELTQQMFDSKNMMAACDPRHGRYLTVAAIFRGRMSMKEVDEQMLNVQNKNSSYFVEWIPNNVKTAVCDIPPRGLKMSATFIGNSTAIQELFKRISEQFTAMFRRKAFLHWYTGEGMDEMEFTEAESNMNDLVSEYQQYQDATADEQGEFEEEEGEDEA

[4] = tested on: KB (epidermoid carcinoma of the nasopharynx); assay: SRB antiproliferative assay, KB; type: cell-based, human; conditions: for IC50: read-out: IC50 KB, 72 h; for IC50 KB: 72 h
[5] = tested on: MCF-7 (estrogen-receptor-positive, HER2-negative breast cancer); assay: SRB antiproliferative assay, MCF-7; type: cell-based, human; conditions: read-out: IC50 MCF-7, 72 h
KB-VIN cells [6] = assay: Tubulin assembly in KB-VIN cells; type: cell-based, human; conditions: data not shown
[7] = tested on: ZR-75-1 (estrogen-receptor-positive, HER2-positive breast cancer); assay: SRB antiproliferative assay, ZR-75-1; type: cell-based, human; conditions: read-out: IC50 ZR-75-1, 72 h
PC-3 (prostate cancer) = assay: SRB antiproliferative assay, PC-3; type: cell-based, human; conditions: for IC50: read-out: IC50 PC-3; for IC50 / IC50 PC-3: SRB, 72 h
[8] = tested on: KB-VIN (P-gp-overexpressing MDR subline of KB); assay: SRB antiproliferative assay, KB-VIN; type: cell-based, human; conditions: for IC50: read-out: IC50 KB-VIN, 72 h
[9] = tested on: SK-BR-3 (HER2-overexpressing breast cancer); assay: SRB antiproliferative assay, SK-BR-3; type: cell-based, human; conditions: for IC50: read-out: IC50 SK-BR3, 72 h
[10] = tested on: MDA-MB-231 (triple-negative breast cancer); assay: SRB antiproliferative assay, MDA-MB-231; type: cell-based, human; conditions: read-out: IC50 MDA-MB-231, 72 h
[11] = tested on: HCT-8 (human colon adenocarcinoma); assay: SRB antiproliferative assay, HCT-8; type: cell-based; conditions: for IC50: read-out: IC50 HCT-8; for IC50 / IC50 HCT-8: SRB, 72 h
bovine brain tubulin [12] = biological target: T1, bovine brain tubulin; assay: Inhibition of [3H]colchicine binding to tubulin; conditions: for ICB, percent inhibition of colchicine binding: 5 µM [3H]colchicine, 1 µM tubulin, 5 µM test compound
[13] = tested on: HepG2 (hepatocellular carcinoma); assay: SRB antiproliferative assay, HepG2; type: cell-based, human; conditions: for IC50: read-out: IC50 Hep-G2, 72 h; for IC50 Hep-G2: 72 h
PC-3 cells [14] = assay: Cell cycle analysis by flow cytometry; type: cell-based, human; conditions: 2 µM, 24 h
human tumor cell lines = assay: SRB antiproliferative assay, comparison across tumor cell lines; type: cell-based
KB cells = assay: Cell cycle analysis by flow cytometry; type: cell-based, human; conditions: 6 or 24 h, PXL 0.02 µM, 4 0.5 µM, 8 2 µM
KB-VIN cells [15] = assay: Cell cycle analysis by flow cytometry; type: cell-based, human; conditions: 6 or 24 h, PXL 3 µM, 4 0.5 µM, 8 2 µM

Row | SMILES | IC50 (A549 (lung carcinoma)) [µM] | IC50 [4] [µM] | IC50 (PC-3 (prostate cancer)) [µM] | IC50 [8] [µM] | IC50 [9] [µM] | IC50 [11] [µM] | ICB, percent inhibition of colchicine binding (bovine brain tubulin [12]) [%] | IC50 [13] [µM] | further results
1 | COc1ccc(/C=C\c2cc(OC)c(OC)c(OC)c2)cc1O [CA-4, combretastatin A-4, reference compound] | – | – | – | – | – | – | – | – | microtubule morphology (PC-3 cells [1]): both depolymerization of interphase microtubules and disruption of mitotic spindles; dose-dependent effects on microtubule morphology (PC-3 cells [1]): Dose-dependent disruption of both interphase microtubules and spindles
2 | CC1=C(O)C(C)(C)c2oc(-c3ccccc3)cc(=O)c2C1=O [Compound 1, Desmosdumotin B, reference compound] | > 40 | > 135 | > 40 | 6.76 | > 40 | – | – | – | selective index (SI), IC50 against non-MDR cells divided by IC50 against MDR cells [2]: > 20; ITA, inhibition of purified tubulin assembly, EC50 (bovine brain tubulin [3]; 10 µM tubulin, 0.4 mM GTP, 30 °C, NA = not active): no effects on tubulin assembly; IC50 [5]: > 40 µM; effect on tubulin assembly in cells (KB-VIN cells [6]): no effects on tubulin assembly; IC50 [7]: > 40 µM; IC50 [10]: > 40 µM
3 | CCC1=C(O)c2c(oc(-c3ccccc3)cc2=O)C(CC)(CC)C1=O [Compound 2, 6,8,8-triethyldesmosdumotin B] | – | – | – | – | – | – | – | – | selective index (SI), IC50 against non-MDR cells divided by IC50 against MDR cells [2]: > 220
4 | CCC1=C(O)c2c(oc(-c3csc4cccc(O)c34)cc2=O)C(CC)(CC)C1=O [Compound 6, 2-(4′-Hydroxybenzo[b]thiophen-3′-yl)-6,8,8-triethyldesmos-dumotin B] | 1.78 | 2.01 | 1.73 | – | 0.65 | 1.71 | 70 | 1.29 | dose-dependent effects on microtubule morphology (PC-3 cells [1]): Dose-dependent disruption of both interphase microtubules and spindles; inhibitory effect on tubulin assembly, fold greater than 8 (bovine brain tubulin [3]; 6 compared with 8): 2 fold; inhibitory effect on colchicine binding, fold greater than 8 (bovine brain tubulin [12]; 6 compared with 8): 2 fold; IC50 [5]: 2.75 µM; IC50 [7]: 11.6 µM; IC50 [10]: 0.71 µM; effect on cell cycle distribution (PC-3 cells [14]): efficiently induced accumulation of G2/M phase cells
5 | CCC1=C(O)c2c(oc(-c3csc4ccc(O)cc34)cc2=O)C(CC)(CC)C1=O [Compound 7, 2-(5′-Hydroxybenzo[b]thiophen-3′-yl)-6,8,8-triethyldesmos-dumotin B] | – | – | – | – | – | – | 32 | – | –
6 | CCC1=C(O)c2c(oc(-c3csc4cc(O)ccc34)cc2=O)C(CC)(CC)C1=O [Compound 8, 2-(6′-Hydroxybenzo[b]thiophen-3′-yl)-6,8,8-triethyldesmos-dumotin B] | – | – | – | – | – | – | 39 | – | –
7 | CCC1=C(O)c2c(oc(-c3csc4c(O)cccc34)cc2=O)C(CC)(CC)C1=O [Compound 9, 2-(7′-Hydroxybenzo[b]thiophen-3′-yl)-6,8,8-triethyldesmos-dumotin B] | 2.04 | 1.28 | 1.47 | 1.12 | – | 10.6 | 37 | 3.01 | dose-dependent effects on microtubule morphology (PC-3 cells [1]): Dose-dependent disruption of both interphase microtubules and spindles; fold reduced inhibitory effect against HCT-8 ([11]; compared with 6 and 8): more than 5 fold; effect on cell cycle distribution (PC-3 cells [14]): efficiently induced accumulation of G2/M phase cells
8 | CCC1=C(O)c2c(oc(-c3csc4cccc(OC)c34)cc2=O)C(CC)(CC)C1=O [Compound 10, 2-(4′-Methoxybenzo[b]thiophen-3′-yl)-6,8,8-triethyldes-mosdumotin B] | – | – | – | 11.8 | 18.7 | – | – | – | IC50 A549 (A549 (lung carcinoma)): NA (NA, not active (IC50 > 10 µg/mL)); IC50 HCT-8 [11]: NA (NA, not active (IC50 > 10 µg/mL)); IC50 KB [4]: NA ^e (NA, not active (IC50 > 10 µg/mL)); IC50 PC-3 (PC-3 (prostate cancer)): NA (NA, not active (IC50 > 10 µg/mL)); IC50 Hep-G2 [13]: NA (NA, not active (IC50 > 10 µg/mL))
9 | CCC1=C(O)c2c(oc(-c3csc4ccc(OC)cc34)cc2=O)C(CC)(CC)C1=O [Compound 11, 2-(5′-Methoxybenzo[b]thiophen-3′-yl)-6,8,8-triethyldes-mosdumotin B] | – | – | – | – | – | 16.2 | – | – | IC50 A549 (A549 (lung carcinoma)): NA (NA, not active (IC50 > 10 µg/mL)); IC50 KB [4]: NA (NA, not active (IC50 > 10 µg/mL)); IC50 PC-3 (PC-3 (prostate cancer)): NA (NA, not active (IC50 > 10 µg/mL)); IC50 KB-VIN ([8]; 72 h): NA (NA, not active (IC50 > 10 µg/mL)); IC50 Hep-G2 [13]: NA (NA, not active (IC50 > 10 µg/mL)); IC50 SK-BR3 ([9]; 72 h): NA (NA, not active (IC50 > 10 µg/mL))
10 | CCC1=C(O)c2c(oc(-c3csc4c(OC)cccc34)cc2=O)C(CC)(CC)C1=O [Compound 12, 2-(7′-Methoxybenzo[b]thiophen-3′-yl)-6,8,8-triethyldes-mosdumotin B] | 15.8 | 12.1 | 8.51 | 10.7 | 7.97 | – | – | – | IC50 HCT-8 [11]: NA (NA, not active (IC50 > 10 µg/mL)); IC50 [5]: 7.22 µM; IC50 [7]: 9.81 µM; IC50 Hep-G2 [13]: NA (NA, not active (IC50 > 10 µg/mL)); IC50 [10]: 8.17 µM
11 | CCC1=C(O)c2c(oc(-c3sc4ccccc4c3O)cc2=O)C(CC)(CC)C1=O [Compound 14, 2-(3′-Hydroxybenzo[b]thiophen-2′-yl)-6,8,8-triethyldesmos-dumotin B] | 12.5 | 19.6 | 14.6 | 6.61 | 12.1 | 16.5 | – | 15.8 | fold reduced activity against PC-3 (PC-3 (prostate cancer); compared with parent compound 13): 4 fold
12 | CCC1=C(O)c2c(oc(-c3ccc(O)c4ccccc34)cc2=O)C(CC)(CC)C1=O [Compound 16, 2-(4′-Hydroxynaphthalen-1′-yl)-6,8,8-triethyldesmosdumo-tin B] | 0.94 | 0.74 | 1.11 | 0.45 | – | 1.02 | 54 | 0.37 | antiproliferative effect, times greater than parent compound 5 (human tumor cell lines; HepG2, KB and KB-VIN): 2–6 times
13 | CCC1=C(O)c2c(oc(-c3ccc4cc(O)ccc4c3)cc2=O)C(CC)(CC)C1=O [Compound 19, 2-(6′-Hydroxynaphthalen-2′-yl)-6,8,8-triethyldesmosdumo-tin B] | 14.9 | 19.9 | 12.9 | 13.7 | 13.8 | 14.1 | – | 13.4 | fold less active than 15 and 16 (human tumor cell lines; generally, over the tested cell lines): ~10 fold
14 | CC(=O)O[C@H]1C(=O)[C@@]2(C)[C@H]([C@H](OC(=O)c3ccccc3)[C@]3(O)C[C@H](OC(=O)[C@H](O)[C@@H](NC(=O)c4ccccc4)c4ccccc4)C(C)=C1C3(C)C)[C@]1(OC(C)=O)CO[C@@H]1C[C@@H]2O [PXL, paclitaxel, reference compound] | – | – | – | – | – | – | – | – | microtubule morphology (PC-3 cells [1]): inhibited the onset of mitosis and arrested cells at prometaphase with condensed chromosomes; effect on cell cycle distribution (KB cells): significantly impacted the cell cycle; effect on cell cycle distribution (KB-VIN cells [15]): did not show any effect
15 | CC[C@]1(O)C[C@H]2CN(CCc3c([nH]c4ccccc34)[C@@](C(=O)OC)(c3cc4c(cc3OC)N(C=O)[C@H]3[C@@](O)(C(=O)OC)[C@H](OC(C)=O)[C@]5(CC)C=CCN6CC[C@]43[C@@H]65)C2)C1 [VIN, vincristine, reference compound] | – | – | – | – | – | – | – | – | microtubule morphology (PC-3 cells [1]): tubulin paracrystal formation
